Biological target: T1, aldose reductase (Rattus norvegicus, UniProt P07943)
T1 construct: the lenses were excised and homogenized in cold distilled water; from tissue; host or cells: lens of male SD rats, homogenate supernatant (crude enzyme)
Experiment: Inhibitory activity against aldose reductase (crude enzyme from rat lenses, NADPH oxidation at 340 nm, D,L-glyceraldehyde substrate)
Format: biochemical
Conditions: aldose reductase from SD rat lenses, pH 6.2, 30° C.; for inhibition at 10 µM: pH 6.2, 10^-5 M; for inhibition at 10 µM / inhibition at 1 µM: read-out: Percentage of inhibition (%); for inhibition at 1 µM: pH 6.2, 10^-6 M
Method: The compounds of the present invention were evaluated for the inhibitory activity against aldose reductase according to the following assay procedure.
Enzyme activity was assayed according to the modification [Biochemical Pharmacology, 25, 2505 (1976)] of the method described in J. Biol. Chem., 240, 877-882 (1965).
SD strain male rats were sacrificed by decapitation, the lenses were excised and homogenized in cold distilled water. The homogenate was then centrifuged and the supernatant was used as the crude aldose reductase solution.
Separately, a 0.1 M sodium phosphate buffer (pH 6.2) containing 0.4 M ammonium sulfate was prepared at 30° C. In this buffer were dissolved the present compound, the crude aldose reductase solution and nicotinamide-adenine dinucleotide phosphate, reduced form (NADPH). The mixture was preincubated at 30° C. for 3 minutes and the reaction was initiated by addition of D,L-glyceraldehyde. In this case, the concentration of the present compound dissolved was 10^-5 M and 10^-6 M, respectively. The total amount of the assay mixture was 1.0 ml, containing 0.16 mM of NADPH, 10 mM of D,L-glyceraldehyde and 0.010-0.016 units of aldose reductase.
The inhibitory activity of the present compounds against aldose reductase was measured using each 1.0 ml of the reaction mixture containing the present compound in the above concentration. In this measurement, the rate of NADPH oxidation was followed by recording the decrease in absorbance at 340 nm. The inhibitory activity of the present compounds against aldose reductase as measured was expressed in percentage of inhibition (%) as a relative activity based on a control value.

Structure (SMILES) | inhibition at 10 µM | inhibition at 1 µM | Percentage of inhibition (%) (10^-5 M) | Percentage of inhibition (%) (10^-6 M)
CCOC(=O)CCC(C=Cc1ccc(OC)c(OC)c1)=C1SC(=S)NC1=O [Example 2, Ethyl 6-(3,4-dimethoxyphenyl)-4-(4-oxo-2-thioxo-5-thiazolidinylidene)-5-hexenoate] | 72% | 48.6% | – | –
CCCC(C=Cc1ccc(C(=O)O)cc1)=C1SC(=S)NC1=O (single isomer, unassigned) [3 Isomer B] | – | – | 80.5% | 34.5%
CC(C=Cc1cc(Br)cc(Br)c1OCC(=O)O)=C1SC(=S)NC1=O [Example 81, 2,4-Dibromo-6-[3-(4-oxo-2-thioxo-5-thiazolinylidene)-1-butenyl]phenoxyacetic acid] | 75.4% | – | – | –
CC(C=Cc1cc(C(C)C)c(OCC(=O)O)c(C(C)C)c1)=C1SC(=S)NC1=O [Example 77, 2,6-Diisopropyl-4-[3-(4-oxo-2-thioxo-5-thiazolinylidene)-1-butenyl]phenoxyacetic acid] | 82.8% | 41.4% | – | –
CCCCCCC(C=Cc1ccc(OCc2nn[nH]n2)cc1)=C1SC(=S)NC1=O [Example 4] | 62.6% | 29.9% | – | –
CCOC(=O)COc1ccc(C=CC(C)=C2SC(=S)N(C)C2=O)cc1OC (single isomer, unassigned) [55 Isomer B] | – | – | 47.5% | 24.3%
COC(=O)COc1ccc(OC)cc1C=CC(C)=C1SC(=S)NC1=O [Example 65, Methyl 4-methoxy-2-[3-(4-oxo-2-thioxo-5-thiazolinylidene)-1-butenyl]phenoxyacetate] | 55.2% | 34.3% | – | –
CC(C=Cc1ccccc1OCC(=O)O)=C1SC(=S)NC1=O [Example 67, 2-[3-(4-Oxo-2-thioxo-5-thiazolinylidene)-1-butenyl]phenoxyacetic acid] | 95.3% | 79.4% | – | –
O=C(O)CCC(C=Cc1cccc(O)c1)=C1SC(=S)NC1=O (single isomer, unassigned) [Example 25, 6-(3-Hydroxyphenyl)-4-(4-oxo-2-thioxo-5-thiazolidinylidene)-5-hexenoic acid] | 82% | 32.9% | – | –
CCOC(=O)COc1ccc(CCC(C)=C2SC(=S)NC2=O)cc1OC [Example 43, Ethyl 2-methoxy-4-[3-(4-oxo-2-thioxo-5-thiazolinylidene)butyl]phenoxyacetate] | 48.9% | 26.1% | – | –
CCOC(=O)CCC(C=Cc1cccc(O)c1)=C1SC(=S)NC1=O (single isomer, unassigned) [8 Isomer B] | – | – | 43.1% | –
CC(C=Cc1ccc(OCC(=O)O)cc1)=C1SC(=S)NC1=O (single isomer, unassigned) [21 Isomer A] | 94.9% | 78.3% | – | –
CCOC(=O)CCC(C=Cc1cccs1)=C1SC(=S)NC1=O (single isomer, unassigned) [13 Isomer A] | 56% | – | – | –
COc1cc(C=CC(C)=C2SC(=S)NC2=O)ccc1OCC(=O)O [Example 32, 4-[3-(4-Oxo-2-thioxo-5-thiazolidinylidene)-1-butenyl]-2-methoxyphenoxyacetic acid] | 92.5% | 84.7% | – | –
CCCC(=Cc1ccccc1OCC(=O)OC)C=C1SC(=S)NC1=O (single isomer, unassigned) [61 Isomer B] | – | – | 77.2% | 39.0%
COC(=O)COc1ccccc1C=C(C)C=C1SC(=S)NC1=O [Example 41, Methyl 2-[2-methyl-3-(4-oxo-2-thioxo-5-thiazolinylidene)-1-propenyl]phenoxyacetate] | 86.2% | 48.5% | – | –
O=C(O)CCC(C=Cc1ccc(C(F)(F)F)cc1)=C1SC(=S)NC1=O (single isomer, unassigned) [Example 23, 6-(4-Trifluoromethylphenyl)-4-(4-oxo-2-thioxo-5-thiazolidinylidene)-5-hexenoic acid] | 64.6% | – | – | –
